Measurements taken from PubChem BioAssay AID330 (DTP/NCI, 2004).
Several values for one entry are separate records, joined by “and”; a condition that tells them apart may be missing. Equal values may be shown once. Inconclusive results and toxic doses are left out.

System: P388 leukemia ip, CD2F1 mice, survival T/C
Test: NCI In Vivo Anticancer Drug Screen. Data for tumor model P388 Leukemia (intraperitoneal) in CD2F1 (CDF1) mice
Conditions: endpoint: median survival time, higher = longer survival
How it was run: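 Mice carrying the transplanted tumor received test compound or vehicle. Survival was recorded in each group, and the value is the treated-group measurement divided by that of the vehicle-treated control group.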

[1] = dose: 60.0 mg/kg/injection, schedule: Q01DX005 (ip), vehicle: saline with Tween-80
[2] = dose: 120.0 mg/kg/injection, schedule: Q01DX005 (ip), vehicle: saline with Tween-80
[3] = dose: 240.0 mg/kg/injection, schedule: Q01DX005 (ip), vehicle: saline with Tween-80
[4] = dose: 50.0 mg/kg/injection, schedule: Q01DX009 (ip), vehicle: Klucel (hydroxypropylcellulose) (HPC)
[5] = dose: 100.0 mg/kg/injection, schedule: Q01DX009 (ip), vehicle: Klucel (hydroxypropylcellulose) (HPC)
[6] = dose: 200.0 mg/kg/injection, schedule: Q01DX009 (ip), vehicle: Klucel (hydroxypropylcellulose) (HPC)
[7] = dose: 25.0 mg/kg/injection, schedule: Q01DX009 (ip), vehicle: Klucel (hydroxypropylcellulose) (HPC)
[8] = dose: 50.0 mg/kg/injection, schedule: Q01DX009 (ip), vehicle: saline
[9] = dose: 100.0 mg/kg/injection, schedule: Q01DX009 (ip), vehicle: saline
[10] = dose: 200.0 mg/kg/injection, schedule: Q01DX009 (ip), vehicle: saline
[11] = dose: 50.0 mg/kg/injection, schedule: Q01DX009 (ip), vehicle: saline with Tween-80
[12] = dose: 100.0 mg/kg/injection, schedule: Q01DX009 (ip), vehicle: saline with Tween-80
[13] = dose: 200.0 mg/kg/injection, schedule: Q01DX009 (ip), vehicle: saline with Tween-80

COc1cc(C2c3cc4c(cc3[C@@H](OC3OC5CO[C@@H](c6cccs6)OC5C(O)C3O)[C@H]3COC(=O)C23)OCO4)cc(OC)c1OC (stereo partly specified)
T/C (dose: 2.0 mg/kg/injection, schedule: Q01DX005 (ip), vehicle: saline): 123 % of control
T/C (dose: 8.0 mg/kg/injection, schedule: Q01DX005 (ip), vehicle: saline): 155 % of control
T/C (dose: 16.0 mg/kg/injection, schedule: Q01DX005 (ip), vehicle: saline): 175 % of control and 185 % of control
T/C (dose: 32.0 mg/kg/injection, schedule: Q01DX005 (ip), vehicle: saline): 203 % of control
T/C (dose: 64.0 mg/kg/injection, schedule: Q01DX005 (ip), vehicle: saline): 225 % of control

Br[C](Br)(Br)[Hg][c]1ccccc1
T/C (dose: 3.13 mg/kg/injection, schedule: Q01DX009 (ip), vehicle: saline with Tween-80): 106 % of control
T/C (dose: 6.25 mg/kg/injection, schedule: Q01DX009 (ip), vehicle: saline with Tween-80): 100 % of control
T/C (dose: 12.5 mg/kg/injection, schedule: Q01DX009 (ip), vehicle: saline with Tween-80): 104 % of control

COc1ccc(-c2c(C(=O)O)oc3cc(O)ccc3c2=O)cc1OC
T/C [1]: 99 % of control
T/C [2]: 97 % of control
T/C [3]: 96 % of control

Cc1cc(C)nc(Nc2nnc(Nc3cc(C)cc(C)n3)c3ccccc23)c1
T/C (dose: 50.0 mg/kg/injection, schedule: Q01DX005 (ip), vehicle: saline with Tween-80): 96 % of control
T/C (dose: 100.0 mg/kg/injection, schedule: Q01DX005 (ip), vehicle: saline with Tween-80): 93 % of control
T/C (dose: 200.0 mg/kg/injection, schedule: Q01DX005 (ip), vehicle: saline with Tween-80): 87 % of control

COC(=O)c1cc(=O)n2c(nc3ccccc32)s1
T/C (dose: 50.0 mg/kg/injection, schedule: Q01DX005 (ip), vehicle: acetone): 108 % of control
T/C (dose: 100.0 mg/kg/injection, schedule: Q01DX005 (ip), vehicle: acetone): 104 % of control
T/C (dose: 200.0 mg/kg/injection, schedule: Q01DX005 (ip), vehicle: acetone): 101 % of control

C=C(C)Cn1c(=O)n(CC)c(=O)c2[nH]c(Cl)nc21
T/C (dose: 16.0 mg/kg/injection, schedule: Q01DX009 (ip), vehicle: Klucel (hydroxypropylcellulose) (HPC)): 108 % of control
T/C (dose: 32.0 mg/kg/injection, schedule: Q01DX009 (ip), vehicle: Klucel (hydroxypropylcellulose) (HPC)): 107 % of control
T/C [4]: 95 % of control
T/C (dose: 64.0 mg/kg/injection, schedule: Q01DX009 (ip), vehicle: Klucel (hydroxypropylcellulose) (HPC)): 117 % of control
T/C [5]: 100 % of control
T/C [6]: 101 % of control

Oc1ccc2c(c1)Cc1cc3ccccc3nc1-2
T/C [7]: 101 % of control
T/C [4]: 98 % of control
T/C [5]: 94 % of control
T/C [6]: 103 % of control

COC(=O)c1cc(-c2ccco2)c2c(=O)n(-c3ccccc3)[nH]c2n1
T/C [1]: 103 % of control
T/C [2]: 105 % of control
T/C [3]: 94 % of control

CCCC[Si](O)(CCCC)CCCC
T/C [8]: 100 % of control
T/C [9]: 102 % of control
T/C [10]: 100 % of control

CCOC(=O)c1cc(/C=C/c2ccc(Cl)cc2Cl)on1
T/C [1]: 100 % of control
T/C [2]: 90 % of control

CC1=C2C=CCC[C@H](C)[C@H]2CC1
T/C (dose: 3.5 mg/kg/injection, schedule: Q01DX005 (ip), vehicle: water): 95 % of control
T/C (dose: 7.0 mg/kg/injection, schedule: Q01DX005 (ip), vehicle: water): 95 % of control
T/C (dose: 14.0 mg/kg/injection, schedule: Q01DX005 (ip), vehicle: water): 92 % of control
T/C (dose: 28.0 mg/kg/injection, schedule: Q01DX005 (ip), vehicle: water): 94 % of control

Cc1cc(C)n(/C(N)=N/[N+](=O)[O-])n1
T/C [8]: 96 % of control
T/C [9]: 105 % of control
T/C [10]: 86 % of control

CSC(SC)=C1C(=O)NC(Cc2ccccc2)C1=O (stereo unspecified)
T/C (dose: 6.25 mg/kg/injection, schedule: Q01DX005 (ip), vehicle: saline with Tween-80): 104 % of control
T/C (dose: 12.5 mg/kg/injection, schedule: Q01DX005 (ip), vehicle: saline with Tween-80): 112 % of control
T/C (dose: 25.0 mg/kg/injection, schedule: Q01DX005 (ip), vehicle: saline with Tween-80): 119 % of control

CC(=O)[O-].CC(=O)[O-].CC(=O)[O-].CC(=O)[O-].Cn1c(=O)c2[nH]cnc2n(C)c1=O.Cn1c(=O)c2[nH]cnc2n(C)c1=O.[Rh+2].[Rh+2]
T/C (dose: 3.12 mg/kg/injection, schedule: Q04DX002 (ip), vehicle: Klucel (hydroxypropylcellulose) (HPC)): 100 % of control
T/C (dose: 6.25 mg/kg/injection, schedule: Q04DX002 (ip), vehicle: Klucel (hydroxypropylcellulose) (HPC)): 101 % of control and 120 % of control
T/C (dose: 12.5 mg/kg/injection, schedule: Q04DX002 (ip), vehicle: Klucel (hydroxypropylcellulose) (HPC)): 101 % of control and 118 % of control
T/C (dose: 25.0 mg/kg/injection, schedule: Q04DX002 (ip), vehicle: Klucel (hydroxypropylcellulose) (HPC)): 103 % of control and 110 % of control
T/C (dose: 50.0 mg/kg/injection, schedule: Q04DX002 (ip), vehicle: Klucel (hydroxypropylcellulose) (HPC)): 103 % of control

CCCCC1(CC(=O)OCC)SCCN1C(N)=O (stereo unspecified)
T/C [4]: 100 % of control
T/C [5]: 108 % of control
T/C [6]: 106 % of control

CCCCCCCC/C=C\CCCCCCCC(=O)OCC(=O)OC
T/C [4]: 98 % of control
T/C [5]: 104 % of control
T/C [6]: 110 % of control

CCCCOC1OCN(Cc2ccccc2)CC1(C)C (stereo unspecified)
T/C [11]: 111 % of control
T/C [12]: 123 % of control
T/C [13]: 122 % of control

O=c1c(-c2ccccc2)coc2cc(O)ccc12
T/C [1]: 105 % of control
T/C [2]: 89 % of control
T/C [3]: 88 % of control

CC1(c2ccc([N+](=O)[O-])cc2)OC(=O)C(=Cc2ccc([N+](=O)[O-])s2)C(=O)O1 (stereo unspecified)
T/C [11]: 103 % of control
T/C [12]: 96 % of control
T/C [13]: 103 % of control

CC(=O)OCCCN1/C(=C/C=C2\CCC(/C=C/c3sc4cc5ccccc5cc4[n+]3CCCOC(C)=O)=C2N(c2ccccc2)c2ccccc2)Sc2cc3ccccc3cc21
T/C (dose: 12.5 mg/kg/injection, schedule: Q01DX009 (ip), vehicle: Klucel (hydroxypropylcellulose) (HPC)): 110 % of control
T/C [7]: 110 % of control
T/C [4]: 111 % of control

Nc1nc(S)cc(=O)[nH]1
T/C [11]: 91 % of control
T/C [12]: 108 % of control
T/C [13]: 94 % of control
T/C (dose: 400.0 mg/kg/injection, schedule: Q01DX009 (ip), vehicle: saline with Tween-80): 99 % of control

COC(=O)C(Cc1ccc(O)cc1)NS(=O)(=O)Cc1ccccc1 (stereo unspecified)
T/C [11]: 107 % of control
T/C [12]: 96 % of control
T/C [13]: 99 % of control

CCOC(=O)CNC(=O)NCc1ccccc1
T/C [1]: 108 % of control
T/C [2]: 90 % of control
T/C [3]: 96 % of control

[O-]/[N+](=C\c1ccccc1)C(c1ccccc1)c1ccccc1
T/C (dose: 25.0 mg/kg/injection, schedule: Q04DX003 (ip), vehicle: saline): 100 % of control
T/C (dose: 50.0 mg/kg/injection, schedule: Q04DX003 (ip), vehicle: saline): 100 % of control
T/C (dose: 100.0 mg/kg/injection, schedule: Q04DX003 (ip), vehicle: saline): 100 % of control

O=C(SCC(/C=N/Nc1ccc([N+](=O)[O-])cc1[N+](=O)[O-])c1ccccc1)c1ccccc1 (stereo unspecified)
T/C (dose: 100.0 mg/kg/injection, schedule: Q01DX001 (ip), vehicle: Klucel (hydroxypropylcellulose) (HPC)): 92 % of control
T/C (dose: 200.0 mg/kg/injection, schedule: Q01DX001 (ip), vehicle: Klucel (hydroxypropylcellulose) (HPC)): 89 % of control
T/C (dose: 400.0 mg/kg/injection, schedule: Q01DX001 (ip), vehicle: Klucel (hydroxypropylcellulose) (HPC)): 92 % of control

C=CC(C)(C)C(O)C=C(C)C (stereo unspecified)
T/C (dose: 100.0 mg/kg/injection, schedule: Q04DX002 (ip), vehicle: saline with Tween-80): 99 % of control
T/C (dose: 200.0 mg/kg/injection, schedule: Q04DX002 (ip), vehicle: saline with Tween-80): 100 % of control
T/C (dose: 400.0 mg/kg/injection, schedule: Q04DX002 (ip), vehicle: saline with Tween-80): 101 % of control

O=C(/C=C/c1ccccc1[N+](=O)[O-])c1ccccc1
T/C (dose: 50.0 mg/kg/injection, schedule: Q04DX003 (ip), vehicle: saline with Tween-80): 99 % of control
T/C (dose: 100.0 mg/kg/injection, schedule: Q04DX003 (ip), vehicle: saline with Tween-80): 101 % of control
T/C (dose: 200.0 mg/kg/injection, schedule: Q04DX003 (ip), vehicle: saline with Tween-80): 101 % of control
T/C (dose: 400.0 mg/kg/injection, schedule: Q04DX003 (ip), vehicle: saline with Tween-80): 108 % of control
